The subject of series [1] is Mycobacterium tuberculosis H37Rv (ATCC 27294). Put plainly: Microplate Alamar Blue Assay (MABA): primary screening and MIC determination. Type of series: cell-based. The settings on record: Mycobacterium tuberculosis; retest at lower concentrations in the MABA; read-out: MIC. Background: Alamar Blue is a resazurin reagent that responds to reducing activity.
Series [2] relates to M. tuberculosis Erdman (ATCC 35801). Briefly: 90% and 99% effective concentration in M. tuberculosis infected macrophages. The settings on record: for EC99 / EC^+99: monolayers of mouse bone marrow macrophages; for EC99: […]% reduction in residual mycobacterial growth after 7 days compared with untreated controls; for EC^+99: reduction in residual mycobacterial growth after 7 days compared with untreated controls. It is filed as cell-based.

Structures are written as SMILES. Converted amounts (≈) assume the structure as drawn.

In general, MIC refers to the least concentration at which growth counts as inhibited. The EC99 is the concentration needed for an effect of 99%. Low values mean greater potency, high ones weaker potency. A word on the melting point: it is the temperature of the solid-liquid transition. For `COc1ccc(Cn2cnc3c(-c4ccco4)ncnc32)cc1` [Example 33, 6-(2-Furyl)-9-(4-methoxyphenylmethyl)-9H-purine], the melting point lay in the range of 175 to 176 °C. Besides, in series [1], the MIC was 1.56 µg/mL (≈ 5.09 µM). Further, the EC90/MIC in series [2] (MIC data from Table 1) is given as more than 8.01. In addition, in series [2], the EC99 was more than 12.5 µg/mL and the “EC^+99” value is more than 12.5 µg/mL.
The compound `COc1cccc(Cn2cnc3c(-c4ccco4)ncnc32)c1` [Example 34, 6-(2-Furyl)-9-(3-methoxyphenylmethyl)-9H-purine] gave a melting point of 138 to 139 °C. Moreover, in series [1], the minimal inhibitory concentration (MIC) turned out to be 6.25 µg/mL (≈ 20.4 µM).
On to `COc1ccc(Cn2cnc3c(-c4ccco4)ncnc32)cc1C` [Example 35, 6-(2-Furyl)-9-(4-methoxy-3-methylphenylmethyl)-9H-purine], for which the melting point fell in the range of 169 to 170 °C. In addition, the MIC in series [1] amounted to 0.78 µg/mL (≈ 2.43 µM).
The like results for `CCOc1ccc(Cn2cnc3c(-c4ccco4)ncnc32)cc1` [Example 39, 9-(4-Ethoxyphenylmethyl)-6-(2-furyl)-9H-purine] were, in that order, 165 to 166 °C and 3.13 µg/mL (≈ 9.77 µM).
For `c1ccc(COc2ccc(Cn3cnc4c(-c5ccco5)ncnc43)cc2)cc1` [Example 40, 9-(4-Benzyloxyphenylmethyl)-6-(2-furyl)-9H-purine], the melting point was in the range of 145 to 146 °C. In series [1], the MIC amounted to 1.56 µg/mL (≈ 4.08 µM).
The compound `CSc1ccc(Cn2cnc3c(-c4ccco4)ncnc32)cc1` [Example 42, 6-(2-Furyl)-9-(4-methylthiophenylmethyl)-9H-purine] showed a melting point of 157 to 159 °C. Also, the MIC in series [1] was found to be 6.25 µg/mL (≈ 19.4 µM).
For the compound `CN(C)c1ccc(Cn2cnc3c(-c4ccco4)ncnc32)cc1` [Example 43, 9-(4-Dimethylaminophenylmethyl)-6-(2-furyl)-9H-purine], the melting point is 158 to 160 °C. Moreover, the minimal inhibitory concentration (MIC) in series [1] was determined as 12.5 µg/mL (≈ 39.1 µM).
Consider `Clc1nc(-c2ccco2)c2ncn(Cc3ccc(Cl)c(Cl)c3)c2n1` [Example 47, 2-Chloro-9-(3,4-dichlorophenylmethyl)-6-(2-furyl)-9H-purine], for which the melting point fell in the range of 191 to 193 °C. The MIC in series [1] came to 6.25 µg/mL (≈ 16.5 µM).
Compound `Clc1cccc(Cn2cnc3c(-c4ccco4)nc(Cl)nc32)c1` [Example 48, 2-Chloro-9-(3-chlorophenylmethyl)-6-(2-furyl)-9H-purine] returned a melting point of 196 to 198 °C. In addition, the MIC in series [1] worked out at 3.13 µg/mL (≈ 9.07 µM).
The like results for `Fc1ccc(Cn2cnc3c(-c4ccco4)nc(Cl)nc32)cc1` [Example 49, 2-Chloro-9-(4-fluorophenylmethyl)-6-(2-furyl)-9H-purine] were, in that order, 152 to 155 °C and 3.13 µg/mL (≈ 9.52 µM).
In the case of `COc1ccc(Cn2cnc3c(-c4ccco4)nc(Cl)nc32)cc1` [Example 51, 2-Chloro-6-(2-furyl)-9-(4-methoxyphenylmethyl)-9H-purine], the MIC in series [1] is 0.39 µg/mL (≈ 1.14 µM). Besides, in series [2], the EC99 worked out at 0.67 µg/mL and the “EC^+99” value worked out at 0.02 µg/mL.
With `COc1cccc(Cn2cnc3c(-c4ccco4)nc(Cl)nc32)c1` [Example 52, 2-Chloro-6-(2-furyl)-9-(3-methoxyphenylmethyl)-9H-purine], the melting point is 160 to 161 °C. Further, the MIC in series [1] was determined as 3.13 µg/mL (≈ 9.19 µM).
Take `COc1ccc(Cn2cnc3c(-c4ccco4)nc(Cl)nc32)cc1C` [Example 53, 2-Chloro-6-(2-furyl)-9-(4-methoxy-3-methylphenylmethyl)-9H-purine]: the melting point was 177 to 179 °C. The MIC in series [1] was determined as 0.78 µg/mL (≈ 2.2 µM).
The like results for `COc1ccc(Cn2cnc3c(-c4ccc(OC)cc4)nc(Cl)nc32)cc1` [Example 54, 2-Chloro-6-(4-methoxyphenyl)-9-(4-methoxyphenylmethyl)-9H-purine] were, in that order, 152 to 154 °C and 1.56 µg/mL (≈ 4.1 µM).
The like results for `COC(c1ccccc1)n1cnc2c(-c3cccs3)nc(Cl)nc21` (centres unmarked) [Example 55, 2-Chloro-9-(methoxyphenylmethyl)-6-(2-thienyl)-9H-purine] were, in that order, 183 to 185 °C and 0.78 µg/mL (≈ 2.19 µM).
Compound `COc1ccc(Cn2cnc3c(-c4ccco4)nc(SC)nc32)cc1` [Example 68, 6-(2-Furyl)-9-(4-methoxyphenylmethyl)-2-methylthio-9H-purine] came in with a melting point of 147 to 148 °C. Further, the MIC in series [1] is 0.78 µg/mL (≈ 2.21 µM).
The like results for `COc1ccc(Cn2ccc3c(-c4ccco4)ncnc32)cc1` [Example 109, 4-(2-Furyl)-7-(4-methoxybenzyl)-7H-pyrrolo[2,3-d]pyrimidine] were, in that order, 130 to 131 °C and 0.39 µg/mL (≈ 1.28 µM).

For the origin of these results see patent publication US20070203159A1, “Purine compounds” (priority 2006, published 2007).
